Assay [1] relates to lean male mice. Put plainly: Oral glucose tolerance test (OGTT) in lean male mice. Conditions: for Glucose excursions following oral glucose administration: oral dosing, different doses, glucose 2 g/kg, vs vehicle; for Dose at which significantly improved glucose tolerance was observed: oral, OGTT lean male mice; for Calculated unbound effective concentration, Ce50: unbound concentration giving 50% decrease in blood glucose over time vs vehicle, turnover model. The format is in vivo, mouse. As for the experimental part:
OGTT tests were performed in lean male mice (body weight 27-32g), randomized on body weight, fasted for 16 hours. An oral glucose load (2 g/kg) was administered 30 min (AZ13581837, 7 and 18 mg/kg) or 60 min (Metabolex-36, 10, 30 and 100 mg/kg) after oral dosing with the GPR120 agonists and blood glucose was measured at -30, 0, 10, 25, 40, 60 and 90 min post glucose administration. The specificity of Metabolex-36 was examined in male GPR120 null mice. The administration time for the GPR120 agonists was optimized depending on the pharmacokinetic profile of each compound, in order to maximize the plasma exposure of the compounds during the experiments.
For OGTT a turnover model with a log-linear drug function was used to model the glucose lowering effect determined as the effective concentration resulting in a 50% decrease in blood glucose over time (Ce50) compared to vehicle. All analyses were performed using Phoenix WinNonlin 6.4 (Certara, Princeton, NJ, USA). The area under the glucose excursion curve was calculated and used for statistical evaluation.

In assay [2] the test system is dispersed wt mouse islets cell. Description: cAMP production in dispersed wild type mouse islet cells. In kind it is cell-based. Conditions: 10 μM agonist, vs control cells. How it is done: (§1) Mouse islets were isolated from pancreas by collagenase digestion, handpicked under microscope following multiple washing steps and dispersed to single cells using TrypLE Express (Gibco). The dispersed islet cells (20 000 cells/well) were incubated with the GPR120 agonists for 30 min in 96-well black plates (Corning) at 37°C in Krebs ringer phosphate Hepes buffer, pH 7.4, with 11 mM Glucose, 0.1% BSA and 0.5 mM 3-isobutyl-1-methylxanthine followed by addition of d2-labeled cAMP and anti-cAMP Cryptate in conjugation and lysis buffer (Cisbio). Produced cAMP was detected with homogenous time resolved fluorescence (HTRF) (λex = 340 nm, λem = 665 and 615 nm) using a Pherastar (BMG Labtech).

In assay [3] the target is T1, human GPR120 (Homo sapiens, UniProt Q5NUL3).
T1 construct: expressed in transfected cells
T1 sequence (Q5NUL3 1-361): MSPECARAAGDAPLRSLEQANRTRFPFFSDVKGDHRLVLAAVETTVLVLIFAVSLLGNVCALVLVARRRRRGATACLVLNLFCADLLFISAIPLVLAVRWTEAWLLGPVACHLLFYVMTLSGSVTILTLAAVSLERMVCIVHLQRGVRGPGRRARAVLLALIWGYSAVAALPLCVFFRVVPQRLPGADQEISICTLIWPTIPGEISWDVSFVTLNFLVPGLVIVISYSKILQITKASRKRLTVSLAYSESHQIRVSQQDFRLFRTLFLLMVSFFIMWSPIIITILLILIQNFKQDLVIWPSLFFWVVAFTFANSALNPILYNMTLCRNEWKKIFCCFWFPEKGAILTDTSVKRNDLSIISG
Put plainly: cAMP assay in CHO-hGPR120 cells. The format is cell-based. Conditions: cAMP production in CHO-hGPR120 cells; mean ± SEM. As for the experimental part:
CHO-hGPR120 or CHO cells in HBSS (Invitrogen), 20 mM HEPES (Invitrogen), pH 7.4, 0.01% BSA, 1.5 mM 3-isobutyl-1-methylxanthine (Sigma) and d2-labeled cAMP (CisBio) were incubated with GPR120 agonists (1% DMSO) for 45 min at room temperature in white small-volume 384-well plates (Greiner). The reaction was terminated by addition of conjugate and lysis buffer (CisBio) supplemented with anti-cAMP Cryptate (CisBio).
On the technique in general: Changes in cAMP serve as a functional read-out for many G protein-coupled receptors.

Assay [4] has as its system islets from GPR120 null mice. Put plainly: cAMP production in dispersed islet cells from GPR120 null mice. The format is cell-based, mouse. Conditions: 10 μM agonist. How it is done:
as §1

The subject of assay [5] is lean mice. Description: Plasma total GLP-1 levels after oral administration in mice. In kind it is in vivo, mouse. Conditions: 30 min after AZ13581837 or 60 min after Metabolex-36, oral, vs respective control group. As for the experimental part: In separate experiments, mice were pretreated with the GLP-1 receptor antagonist exendin 9–39 (30 nmol/kg, Bachem; intraperitoneally) alone or in combination with the GPR120 agonists, 15 min prior to the IVGTT. Insulin and glucose were measured 0, 1, 5, 10, 20 and 40 min after intravenous (iv) glucose administration. In separate groups of mice total GLP-1 levels were measured 60 min after oral administration of Metabolex-36 or 30 min after AZ13581837 and in corresponding vehicle (0.5% HPMC, 0.1% Tween-80) dosed mice. Blood samples were collected in EDTA coated tubes, centrifuged at 10000xg for 4 min, and plasma was separated and stored frozen until analyzed.
Glucose was measured using a glucometer (AccuCheck, Bayer). Circulating hormones were measured using specific ELISA kits; insulin (ultra-sensitive mouse insulin, Crystal Chemistry), and total and active GLP-1 (Millipore).

Assay [6] relates to STC-1 cells. Put plainly: GLP-1 secretion from STC-1 cells. In kind it is cell-based, mouse. Conditions: 2 hours, active GLP-1, vs 0.1% DMSO. How it is done: STC-1 cells were cultured in DMEM (Invitrogen) supplemented with 10% horse serum (ThermoFisher Scientific), 2.5% FBS (Hyclone) and 1% Penicillin/Streptomycin in 96-well poly-D-Lysine coated plates to 80–90% confluence at 37°C, 5% CO2. Cells were washed and pre-incubated in assay buffer (HBSS with Ca^2+ and Mg^2+ containing 20 mM HEPES, 0.1% BSA (Sigma) and 20 nM sitagliptin (dipeptidyl peptidase 4 (DPP-4) inhibitor), for 30 min in 37°C. GPR120 agonists were added and cells were incubated for 2 hours in 37°C. DMSO (0.1%) was used as control. GLP-1 secretion was measured in the supernatants (GLP-1 active, Millipore) by fluorescence detection. Concentration of active GLP-1 was derived by interpolation from a GLP-1 standard curve.

Broadly, the EC50 is the concentration that produces a half-maximal response. A low value points to an effect from little substance. In the case of `C#Cc1cc(Oc2cccnc2)cc(N2Cc3ccccc3S2(=O)=O)c1` [AZ13581837, 2-(3-ethynyl-5-(3-pyridyloxy)phenyl)-3H-1,2-benzothiazole 1,1-dioxide], in assay [1], the “Glucose excursions following oral glucose administration” value is listed as “concentration dependent reduction”; the “Dose at which significantly improved glucose tolerance was observed” value is on record as 18 mg/kg; the “Calculated unbound effective concentration, Ce50” value was 0.02 µM. Also, in assay [2], the “cAMP production in dispersed wt mouse islet cells” value is given as “significantly reduced cAMP production”. Also, a half-maximal effect in assay [3] (EC50) was put at 0.06 ± 0.007 µM. Besides, the “cAMP production in islets from GPR120 null mice” value in assay [4] is listed as “no effect”. Also, in assay [5], the “Total GLP-1 levels” value was “significant increase”. The “GLP-1 secretion from STC-1 cells” value in assay [6] was “significantly increased GLP-1 secretion”.

In the case of “3-(3,5-difluoro-4-((3-methyl-1-phenyl-1H-pyrazol-5-yl)methoxy)phenyl)-2-methylpropanoic acid [Metabolex-36]”, in assay [1], the “Glucose excursions following oral glucose administration” value is “concentration dependent reduction”; the “Dose at which significantly improved glucose tolerance was observed” value is recorded as 30 mg/kg; the “Calculated unbound effective concentration, Ce50” value was 0.6 µM. In addition, the “cAMP production in dispersed wt mouse islet cells” value in assay [2] was “significantly reduced cAMP production”. The compound also came in with an EC50 in assay [3] of 6.7 ± 1 µM. Further, the “cAMP production in islets from GPR120 null mice” value in assay [4] was “no effect”. Also, the “Total GLP-1 levels” value in assay [5] is listed as “significant increase”. In addition, the “GLP-1 secretion from STC-1 cells” value in assay [6] is “significantly increased GLP-1 secretion”.

These data come from paper PMC5716539, “The acute glucose lowering effect of specific GPR120 activation in mice is mainly driven by glucagon-like peptide 1” (PLoS ONE, 2017).
